From patent US20100168054A1, “Functionalized Beta 1,6 Glucosamine Disaccharides and Process for Their Preparation” (OM PHARMA, priority 2006, published 2010)
Values joined by “and” are separate entries in the source; they are usually repeats but may differ in a detail not shown here. Equal values may be shown once. Marks after values point to notes of the source that are not given here.

How the values were obtained:
Format in all cases: in vivo, BALB/c ByJ mice
[1] = system: LACK-sensitized and challenged mice; assay: LACK-induced asthma model: pulmonary cytokines
Method: (§1) An example in vivo of the biological activity of two representative compounds of the invention is presented here. Using a mouse model of allergic asthma previously published (described in Julia et al. Immunity. 2002 February; 16(2):271-83), we aimed to investigate whether i.p. administrations of the synthetic molecules OM-174-DP and OM-174-MP-PD would inhibit airway inflammation in LACK-sensitized and challenged mice. To this goal, mice were treated either all along asthma induction (prophylactic model) or therapeutically (i.e. three times after animals have been sensitized to the allergen, the protein LACK). As read-outs, eosinophils were enumerated in bronchoalveolar lavages (BAL), and the well known markers of allergic asthma, namely the Th2 cytokines IL-4, IL-5, and IL-13 were quantified from the lungs. Moreover the level of plasmatic IgE was also reported.
(§2) OM-174-DP (i.p.)-treated LACK-sensitized and challenged mice (6 mice) Treatment and Schedule with Test or Control Article Experiment started at day 0. On days 0, 2, 3, 4, 7, 9, 10 11, and 12, mice of groups C, and D were treated i.p. with synthetic OM-174-DP (compound 1b) and OM-174-MP-PD (compound 19) respectively at the dose of 1 mg/Kg (20 μg per mouse). Mice of groups E were treated therapeutically i.p. on days 15, 17 and 19 at the dose of 1 mg/Kg (20 μg per mouse).
(§3) On day 1 and day 8, mice were sensitized i.p. with LACK/Alum. From day 16 to day 20, all the groups except group A mice were challenged with aerosols of a solution of LACK (0.15%). Group A received a saline solution (NaCl 0.9%) (group A) for 40 minutes instead.
To analyze pulmonary cytokine contents, lungs were harvested and left lungs were used to prepare protein extracts. 400 μl were recovered for each left lung. Cytokines (IL-4 and IL-13 in a first series of analyses, and then IL-5 and IFN-γ) were measured by multiplex analysis using FACSArray. The results, normalized for the protein content, are presented in pg/ml.

[2] = system: LACK-sensitized and challenged mice; assay: LACK-induced asthma model: LACK-specific IgE in sera; conditions: therapeutic
Method: as §1, §2, §3
To analyze specific IgE contents, mice of groups A, B, and G were bled by heart puncture two days after the last aerosol, and sera were prepared. LACK-specific IgE were measured by ELISA.

[3] = system: LACK-sensitized and challenged mice; assay: LACK-induced asthma model: eosinophils in bronchoalveolar lavages; conditions: for Eosino × 10^6, Mean ± SEM / Eosino × 10^6, individual mice: BAL; for Eosino × 10^6, individual mice: 1 mg/kg
Method: as §1, §2, §3
For all the animals, Broncho-alveolar lavages (BAL) were performed. Two days after the last aerosol challenge, mice were bled and a canula was inserted into their trachea. Lungs were washed 3 times with 1 ml of warmed PBS. Cells were washed with PBS, and red blood cells were lysed using a red blood cell lysis buffer. Cells were further washed in PBS and counted. For differential BAL cell counts, cytospin preparations were made and stained with Wright/Giemsa. At least 400 cells were scored for each slide, and the numbers of lymphocytes, neutrophils, eosinophils, and macrophages/DC/pneumocytes (scored as other mononuclear cells) were determined by microscopic examination. Only eosinophilia is reported here.

[4] = prophylactic, i.p. 1 mg/Kg, 1 mg/kg
[5] = therapeutic, i.p. 1 mg/Kg on days 15, 17, 19
[6] = therapeutic, i.p. 1 mg/Kg on days 15, 17, 19, 1 mg/kg
[7] = prophylactic, i.p. 1 mg/Kg on days 0, 2, 3, 4, 7, 9, 10, 11, 12

With `CCCCCCCCCCCC(=O)O[C@H](CCCCCCCCCCC)CC(=O)NC1C(OCC2OC(OP(=O)(O)O)C(NC(=O)C[C@H](O)CCCCCCCCCCC)C(O)C2O)OC(CO)C(OP(=O)(O)O)C1O` (stereo partly drawn) [compound 1b, 2-Deoxy-6-O-[2-deoxy-4-O-(dihydroxyphosphoryl)-2-[(R)-3-dodecanoyloxytetradecanoylamino]-β-D-glucopyranosyl]-2-[(R)-3-hydroxytetradecanoylamino]-α-D-glucopyranosyl dihydrogenophosphate] the “fold decrease of IL-4 in lungs compared to group B” value ([1]; prophylactic) was 6 fold, the “fold reduction of IL-13 compared to asthmatic mice” value ([1]; prophylactic) was 4 fold and the “Mean IL13” value ([1]; prophylactic, i.p. 1 mg/Kg) was 13.40* pg/ml. For the same molecule, the “Mean IL-4” value ([1]; prophylactic, i.p. 1 mg/Kg) was 1.50** pg/ml, the “IL13 in lungs, individual mice” value [1, 4] was 8.39 pg/mL and 25.39 pg/mL and 8.2 pg/mL and 24.29 pg/mL and 12.52 pg/mL and 1.59 pg/mL and the “IL-4 in lungs, individual mice” value [1, 4] was 1.1 pg/mL and 3.33 pg/mL and 0.71 pg/mL and 2.43 pg/mL and 1.23 pg/mL and 0.17 pg/mL. The “fold reduction in IL-4 compared to group B” value ([1]; therapeutic) was 4 fold, the “fold reduction in IL-13 compared to group B” value ([1]; therapeutic) was 3 fold and the “fold reduction of IL-5 compared to untreated mice” value ([1]; therapeutic) was 2.8 fold. For the same molecule, the “reduction of IFN-γ levels compared to group B (in words)” value ([1]; therapeutic) was “reduced twofold”, the “Mean IFN-γ” value [1, 5] was 1.38* pg/ml and the “Mean IL13” value [1, 5] was 17.90* pg/ml. The “Mean IL-4” value [1, 5] was 2.33** pg/ml, the “Mean IL-5” value [1, 5] was 6.00** pg/ml and the “IFN-γ in lungs, individual mice” value [1, 6] was 1.62 pg/mL and 0.88 pg/mL and 0.94 pg/mL and 2.2 pg/mL and 0.81 pg/mL and 1.8 pg/mL. For the same molecule, the “IL13 in lungs, individual mice” value [1, 6] was 20.35 pg/mL and 5.43 pg/mL and 9.93 pg/mL and 23.68 pg/mL and 21.99 pg/mL and 26.02 pg/mL, the “IL-4 in lungs, individual mice” value [1, 6] was 2.5 pg/ml and 1 pg/ml and 1.58 pg/ml and 3.48 pg/ml (2×) and 1.94 pg/ml and the “IL-5 in lungs, individual mice” value [1, 6] was 7.41 pg/mL and 1.06 pg/mL and 2.15 pg/mL and 9.23 pg/mL and 5.81 pg/mL and 10.33 pg/mL. For the same molecule, the “Mean IgE” value ([2]; sera, i.p. 1 mg/Kg on days 15, 17, 19) was 224.56* ng/ml, the “LACK-specific IgE, individual mice” value ([2]; sera, i.p. 1 mg/Kg on days 15, 17, 19, 1 mg/kg) was 188 ng/mL and 159 ng/mL and 94 ng/mL and 382 ng/mL and 395 ng/mL and 129 ng/mL and the “fold less LACK-specific IgE compared to untreated LACK challenged mice” value [2] was 2.6 fold. For the same molecule, the “Eosino × 10^6, Mean ± SEM” value [3, 7] was 109781 ± 139453 × 10^6, the “Eosino × 10^6, individual mice” value [3, 7] was 75359 × 10^6 and 385612 × 10^6 and 33412 × 10^6 and 54158 × 10^6 and 105352 × 10^6 and 4792 × 10^6 and the “Eosino × 10^6, Mean ± SEM” value [3, 5] was 13923 ± 7362 × 10^6. The “Eosino × 10^6, individual mice” value [3, 5] was 16744 × 10^6 and 3802 × 10^6 and 7411 × 10^6 and 21739 × 10^6 and 12500 × 10^6 and 21343 × 10^6, the “times less BAL eosinophilia compared to positive asthmatic group (B)” value ([3]; prophylactic) was “about 8 times” and the “factor of decrease of eosinophil count compared to group B” value ([3]; therapeutic, three times) was 64.
With `CCCCCCCCCCCC(=O)O[C@H](CCCCCCCCCCC)CC(=O)N[C@H]1[C@H](OC[C@H]2O[C@H](OCC(O)CO)[C@H](NC(=O)C[C@H](O)CCCCCCCCCCC)[C@@H](O)[C@@H]2O)O[C@H](CO)[C@@H](OP(=O)(O)O)[C@@H]1O` (stereo partly drawn) [compound 19, 2,3-Dihydroxypropyl-2-Deoxy-6-O-[2-deoxy-4-O-(dihydroxyphosphoryl)-2-[(R)-3-dodecanoyloxytetradecanoylamino]-β-D-glucopyranosyl]-2-[(R)-3-hydroxytetradecanoylamino]-α-D-glucopyranoside] the “fold decrease of IL-4 in lungs compared to group B” value ([1]; prophylactic) was 4 fold, the “fold reduction of IL-13 compared to asthmatic mice” value ([1]; prophylactic) was 3 fold and the “Mean IL13” value ([1]; prophylactic, i.p. 1 mg/Kg) was 16.62* pg/ml. The “Mean IL-4” value ([1]; prophylactic, i.p. 1 mg/Kg) was 2.09** pg/ml, the “IL13 in lungs, individual mice” value [1, 4] was 12.08 pg/mL and 17.1 pg/mL and 8.59 pg/mL and 30.6 pg/mL and 16.14 pg/mL and 15.21 pg/mL and the “IL-4 in lungs, individual mice” value [1, 4] was 1.01 pg/mL and 1.47 pg/mL and 0.91 pg/mL and 5.68 pg/mL and 1.79 pg/mL and 1.66 pg/mL. For the same molecule, the “Eosino × 10^6, Mean ± SEM” value [3, 7] was 100411 ± 80738 × 10^6, the “Eosino × 10^6, individual mice” value [3, 7] was 33286 × 10^6 and 64010 × 10^6 and 47018 × 10^6 and 252294 × 10^6 and 82555 × 10^6 and 123305 × 10^6 and the “times less BAL eosinophilia compared to positive asthmatic group (B)” value ([3]; prophylactic) was “about 8 times”.
